Assay [1] deals with T1, Sulfolobus CYP119 (cytochrome P450 119, parent sequence SEQ ID NO: 1), apo form, CYP119-141 mutant (C317G, T213G, V254L, L155W) (Sulfolobus acidocaldarius, UniProt Q55080, C317G/L155W/T213G/V254L).
T1 construct: made in house
Description: Binding affinity of apo-CYP119 towards Ir(Me)MPIX/hemin (intrinsic fluorescence quenching, Benesi-Hildebrand). To be noted: excitation 294 nm, 10 mM TRIS buffer pH 8.0, Benesi-Hildebrand analysis. Details: species or system Sulfolobus solfataricus.
Description: Intrinsic fluorescence quenching;^8 Modified from a reported procedure, aliquots (10 μL) of metalloporphyrin stock solutions (in DMSO) were added to a solution containing 0.15 mg/L apo-CYP119 (CYP119-141 mutant, 800 μL, 10 mM TRIS buffer, pH 8.0). This addition caused the concentration of the protein to decrease from its initial value to a final concentration of 0.148 mg/L in the process. After each addition, the emission spectrum of CYP119 was recorded upon excitation at 294 nm. In quenching experiments, the concentration of the chromophore (CYP119 or porphyrin) was kept sufficiently low (<0.15) to ensure uniform light absorption throughout the sample and reduced inner filter effects. The fluorescence emission intensity was calculated as the integral of the emission spectrum in the recorded wavelength range (305-450 nm).

The next assay has as its target apo-ascorbate peroxidase. As to conditions: from literature (ref. 9); cited from earlier work.
The target in another assay is apo-myoglobin. To be noted: from literature (ref. 9); cited from earlier work.

T1 sequence (Q55080 whole entry L155W/T213G/V254L/C317G): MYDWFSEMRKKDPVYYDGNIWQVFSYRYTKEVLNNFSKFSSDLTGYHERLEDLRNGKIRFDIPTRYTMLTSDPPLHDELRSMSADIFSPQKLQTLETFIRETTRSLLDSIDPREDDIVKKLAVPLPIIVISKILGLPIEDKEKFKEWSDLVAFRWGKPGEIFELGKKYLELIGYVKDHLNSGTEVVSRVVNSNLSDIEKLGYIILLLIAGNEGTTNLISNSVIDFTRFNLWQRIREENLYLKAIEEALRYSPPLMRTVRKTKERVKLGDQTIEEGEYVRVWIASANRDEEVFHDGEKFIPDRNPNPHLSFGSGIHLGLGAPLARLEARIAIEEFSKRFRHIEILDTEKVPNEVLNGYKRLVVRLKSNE

Consider `C=CC1=C(C)c2cc3[nH]c(cc4nc(cc5[nH]c(cc1n2)c(C)c5CCC(=O)O)C(CCC(=O)O)=C4C)c(C)c3C=C.[Fe+3]` [Fe(Cl)PPIX, reference compound], for which the Kb in assay [1] is on record as 6.7(0.7) × 10^5 M^−1. The Kd is 1500 nM in assay [1], 190 nM at apo-ascorbate peroxidase and 600 nM at apo-myoglobin.
